Assay results taken from patent US8003785B2 (Takeda Pharmaceutical Company Limited, priority 2008, dated 2011).

These compounds were tested against T1, PLK1 (Homo sapiens, UniProt P53350) (assay: Biochemical Characterization Assay: HTRF kinase assay, GST-PLK1 phosphorylation of GST-p53). Settings: GST-PLK1, GST-p53 substrate, ATP.
T1 construct: Full-length, active GST-PLK1 is purified from Sf9 insect cells; made in house; host or cells: Sf9 insect cells
Protocol: Biochemical Characterization Assay
Full-length, active GST-PLK1 is purified from Sf9 insect cells, and full-length GST-p53 is purified from E. coli. Anti-phospho p53 antibody is from Cell Signaling Technology. Europium-conjugated anti-rabbit antibody is from PerkinElmer Life and Analytical Sciences. APC-conjugated anti-GST antibody is from Prozyme.
Six microliters of GST-PLK1 (3 ug/mL) in Kinase Assay Buffer are then added and the solution incubated at 37° C. for 35 minutes. Six microliters of solution containing 43 mM EDTA to stop the reaction and a 1:600 dilution of anti-phospho-p53 antibody in 20 mM HEPES pH 7, 50 mM NaCl, and 0.5 mg/mL BSA (Antibody Binding Buffer) are added and the solution incubated at 37° C. for 30 minutes. […] The HTRF signal is read on an Envision reader from PerkinElmer Life and Analytical Sciences.

T1 sequence (P53350 whole entry): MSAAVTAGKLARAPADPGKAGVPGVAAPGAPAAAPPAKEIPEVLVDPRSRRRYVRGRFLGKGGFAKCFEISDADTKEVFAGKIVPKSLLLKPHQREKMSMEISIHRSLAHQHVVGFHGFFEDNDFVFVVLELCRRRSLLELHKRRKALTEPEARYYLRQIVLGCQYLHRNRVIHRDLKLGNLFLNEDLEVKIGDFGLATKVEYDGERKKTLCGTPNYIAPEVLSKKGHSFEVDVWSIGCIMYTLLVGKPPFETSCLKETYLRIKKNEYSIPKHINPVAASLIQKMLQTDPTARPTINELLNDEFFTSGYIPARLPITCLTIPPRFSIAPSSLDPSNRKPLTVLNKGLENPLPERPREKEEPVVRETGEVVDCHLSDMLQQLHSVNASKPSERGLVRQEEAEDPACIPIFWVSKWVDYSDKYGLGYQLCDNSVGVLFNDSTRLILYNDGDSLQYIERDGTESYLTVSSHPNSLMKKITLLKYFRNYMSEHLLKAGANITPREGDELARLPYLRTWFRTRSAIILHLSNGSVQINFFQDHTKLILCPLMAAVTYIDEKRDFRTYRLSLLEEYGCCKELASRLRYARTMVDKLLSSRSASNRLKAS

Structure (SMILES) | IC50 [µM]
CCOCCNC(=O)c1ccc(Nc2ncc3c(n2)N(C2CCCC2)CC(F)(F)C(=O)N3C)c(OC)c1 [Example I-40, 4-(9-cyclopentyl-7,7-difluoro-5-methyl-6-oxo-6,7,8,9-tetrahydro-5H-pyrimido[4,5-b][1,4]diazepin-2-ylamino)-N-(2-ethoxy-ethyl)-3-methoxy-benzamide] | 0.001 to 0.05
COc1cc(C(=O)NCCCO)ccc1Nc1ncc2c(n1)N(C1CCCC1)CC(F)(F)C(=O)N2C [Example I-41, 4-(9-cyclopentyl-7,7-difluoro-5-methyl-6-oxo-6,7,8,9-tetrahydro-5H-pyrimido[4,5-b][1,4]diazepin-2-ylamino)-N-(3-hydroxy-propyl)-3-methoxy-benzamide] | 0.001 to 0.05
COc1cc(C(=O)NCc2cc(Cl)cc(Cl)c2)ccc1Nc1ncc2c(n1)N(C1CCCC1)CC(F)(F)C(=O)N2C [Example I-42, 4-(9-cyclopentyl-7,7-difluoro-5-methyl-6-oxo-6,7,8,9-tetrahydro-5H-pyrimido[4,5-b][1,4]diazepin-2-ylamino)-N-(3,5-dichloro-benzyl)-3-methoxy-benzamide] | 0.001 to 0.05
COc1cc(C(=O)NCCc2ccc3c(c2)OCO3)ccc1Nc1ncc2c(n1)N(C1CCCC1)CC(F)(F)C(=O)N2C [Example I-43, N-(2-benzo[1,3]dioxol-5-yl-ethyl)-4-(9-cyclopentyl-7,7-difluoro-5-methyl-6-oxo-6,7,8,9-tetrahydro-5H-pyrimido[4,5-b][1,4]diazepin-2-ylamino)-3-methoxy-benzamide] | 0.051 to 0.5
COc1cc(C(=O)N[C@H]2CCC[C@H]2C(N)=O)ccc1Nc1ncc2c(n1)N(C1CCCC1)CC(F)(F)C(=O)N2C [Example I-44, N-[(1S,2R)-(2-carbamoyl-cyclopentyl)]-4-(9-cyclopentyl-7,7-difluoro-5-methyl-6-oxo-6,7,8,9-tetrahydro-5H-pyrimido[4,5-b][1,4]diazepin-2-ylamino)-3-methoxy-benzamide] | 0.001 to 0.05
COc1cc(C(=O)NCCN2CCCC2)ccc1Nc1ncc2c(n1)N(C1CCCC1)CC(F)(F)C(=O)N2C [Example I-45, 4-(9-cyclopentyl-7,7-difluoro-5-methyl-6-oxo-6,7,8,9-tetrahydro-5H-pyrimido[4,5-b][1,4]diazepin-2-ylamino)-3-methoxy-N-(2-pyrrolidin-1-yl-ethyl)-benzamide] | 0.001 to 0.05
COc1cc(C(=O)NCCCNC(C)C)ccc1Nc1ncc2c(n1)N(C1CCCC1)CC(F)(F)C(=O)N2C [Example I-46, 4-(9-cyclopentyl-7,7-difluoro-5-methyl-6-oxo-6,7,8,9-tetrahydro-5H-pyrimido[4,5-b][1,4]diazepin-2-ylamino)-N-(3-isopropylamino-propyl)-3-methoxy-benzamide] | 0.001 to 0.05
COc1cc(C(=O)NCCN2CCN(C)CC2)ccc1Nc1ncc2c(n1)N(C1CCCC1)CC(F)(F)C(=O)N2C [Example I-47, 4-(9-cyclopentyl-7,7-difluoro-5-methyl-6-oxo-6,7,8,9-tetrahydro-5H-pyrimido[4,5-b][1,4]diazepin-2-ylamino)-3-methoxy-N-[2-(4-methyl-piperazin-1-yl)-ethyl]-benzamide] | 0.001 to 0.05
COc1cc(C(=O)NCCN)ccc1Nc1ncc2c(n1)N(C1CCCC1)CC(F)(F)C(=O)N2C [Example I-48, N-(2-amino-ethyl)-4-(9-cyclopentyl-7,7-difluoro-5-methyl-6-oxo-6,7,8,9-tetrahydro-5H-pyrimido[4,5-b][1,4]diazepin-2-ylamino)-3-methoxy-benzamide] | 0.001 to 0.05
COc1cc(C(=O)NCCN2CCNCC2)ccc1Nc1ncc2c(n1)N(C1CCCC1)CC(F)(F)C(=O)N2C [Example I-49, 4-(9-cyclopentyl-7,7-difluoro-5-methyl-6-oxo-6,7,8,9-tetrahydro-5H-pyrimido[4,5-b][1,4]diazepin-2-ylamino)-3-methoxy-N-(2-piperazin-1-yl-ethyl)-benzamide] | 0.001 to 0.05
COc1cc(C(=O)NC2CC3CCC(C2)N3C)ccc1Nc1ncc2c(n1)N(C1CCCC1)CC(F)(F)C(=O)N2C (stereo not shown) [Example I-50, 4-(9-cyclopentyl-7,7-difluoro-5-methyl-6-oxo-6,7,8,9-tetrahydro-5H-pyrimido[4,5-b][1,4]diazepin-2-ylamino)-3-methoxy-N-(8-methyl-8-aza-bicyclo[3.2.1]oct-3-yl)-benzamide] | 0.001 to 0.05
COc1cc(C(=O)NCCc2c[nH]c3ccccc23)ccc1Nc1ncc2c(n1)N(C1CCCC1)CC(F)(F)C(=O)N2C [Example I-51, 4-(9-cyclopentyl-7,7-difluoro-5-methyl-6-oxo-6,7,8,9-tetrahydro-5H-pyrimido[4,5-b][1,4]diazepin-2-ylamino)-N-[2-(1H-indol-3-yl)-ethyl]-3-methoxy-benzamide] | 0.051 to 0.5
COc1cc(C(=O)NCCN(C)C)ccc1Nc1ncc2c(n1)N(C1CCCC1)CC(F)(F)C(=O)N2C [Example I-52, 4-(9-cyclopentyl-7,7-difluoro-5-methyl-6-oxo-6,7,8,9-tetrahydro-5H-pyrimido[4,5-b][1,4]diazepin-2-ylamino)-N-(2-dimethylamino-ethyl)-3-methoxy-benzamide] | 0.001 to 0.05
COc1cc(C(=O)NCCCNC2CCCCC2)ccc1Nc1ncc2c(n1)N(C1CCCC1)CC(F)(F)C(=O)N2C [Example I-53, N-(3-cyclohexylamino-propyl)-4-(9-cyclopentyl-7,7-difluoro-5-methyl-6-oxo-6,7,8,9-tetrahydro-5H-pyrimido[4,5-b][1,4]diazepin-2-ylamino)-3-methoxy-benzamide] | 0.001 to 0.05
COc1cc(C(=O)NCC(C)(C)CN(C)C)ccc1Nc1ncc2c(n1)N(C1CCCC1)CC(F)(F)C(=O)N2C [Example I-60, 4-(9-cyclopentyl-7,7-difluoro-5-methyl-6-oxo-6,7,8,9-tetrahydro-5H-pyrimido[4,5-b][1,4]diazepin-2-ylamino)-N-(3-dimethylamino-2,2-dimethyl-propyl)-3-methoxy-benzamide] | 0.001 to 0.05
COc1cc(C(=O)NCCCn2ccnc2)ccc1Nc1ncc2c(n1)N(C1CCCC1)CC(F)(F)C(=O)N2C [Example I-61, 4-(9-cyclopentyl-7,7-difluoro-5-methyl-6-oxo-6,7,8,9-tetrahydro-5H-pyrimido[4,5-b][1,4]diazepin-2-ylamino)-N-(3-imidazol-1-yl-propyl)-3-methoxy-benzamide] | 0.001 to 0.05
COc1cc(C(=O)NC2CCN(c3ccncc3)CC2)ccc1Nc1ncc2c(n1)N(C1CCCC1)CC(F)(F)C(=O)N2C [Example I-62, 4-(9-cyclopentyl-7,7-difluoro-5-methyl-6-oxo-6,7,8,9-tetrahydro-5H-pyrimido[4,5-b][1,4]diazepin-2-ylamino)-3-methoxy-N-(3,4,5,6-tetrahydro-2H-[1,4′]bipyridinyl-4-yl)-benzamide] | 0.001 to 0.05
COc1cc(C(=O)NC2CCN(C3CCCC3)CC2)ccc1Nc1ncc2c(n1)N(C1CCCC1)CC(F)(F)C(=O)N2C [Example I-63, 4-(9-cyclopentyl-7,7-difluoro-5-methyl-6-oxo-6,7,8,9-tetrahydro-5H-pyrimido[4,5-b][1,4]diazepin-2-ylamino)-N-(1-cyclopentyl-piperidin-4-yl)-3-methoxy-benzamide] | 0.001 to 0.05
COc1cc(C(=O)NC2CCN(C(C)C)CC2)ccc1Nc1ncc2c(n1)N(C1CCCC1)CC(F)(F)C(=O)N2C [Example I-64, 4-(9-cyclopentyl-7,7-difluoro-5-methyl-6-oxo-6,7,8,9-tetrahydro-5H-pyrimido[4,5-b][1,4]diazepin-2-ylamino)-N-(1-isopropyl-piperidin-4-yl)-3-methoxy-benzamide] | 0.001 to 0.05
